Reference: patent publication US9200051B2, “Peptide compound” (TAKEDA PHARMACEUTICAL COMPANY LIMITED, priority 2013, dated 2015)
Square brackets hold non-standard residues; d marks the D form. Peptide text beside a SMILES is read from it. αMeF = C[C@](N)(Cc1ccccc1)C(=O)O; Aib = CC(C)(N)C(=O)O

What was measured:
human GIPR = biological target: T1, human GIPR (Homo sapiens, UniProt P48546); experiment: Agonist activity against human GIPR, CRE-luciferase reporter assay (rise in intracellular cAMP) in hGIPR/CRE-LUC/CHO-K1 cells; type: cell-based; details: hGIPR/CRE-LUC/CHO-K1 cells, 4 hours incubation; 10 nM GIP = 100%; read-out: Agonist activity (EC50) hGIPR
T1 construct: expressed in transfected cells; host or cells: CHO-K1 (CRE-LUC/CHO-K1), plasmid hGIPR/pMSRα-neo
T1 sequence (P48546 22-466): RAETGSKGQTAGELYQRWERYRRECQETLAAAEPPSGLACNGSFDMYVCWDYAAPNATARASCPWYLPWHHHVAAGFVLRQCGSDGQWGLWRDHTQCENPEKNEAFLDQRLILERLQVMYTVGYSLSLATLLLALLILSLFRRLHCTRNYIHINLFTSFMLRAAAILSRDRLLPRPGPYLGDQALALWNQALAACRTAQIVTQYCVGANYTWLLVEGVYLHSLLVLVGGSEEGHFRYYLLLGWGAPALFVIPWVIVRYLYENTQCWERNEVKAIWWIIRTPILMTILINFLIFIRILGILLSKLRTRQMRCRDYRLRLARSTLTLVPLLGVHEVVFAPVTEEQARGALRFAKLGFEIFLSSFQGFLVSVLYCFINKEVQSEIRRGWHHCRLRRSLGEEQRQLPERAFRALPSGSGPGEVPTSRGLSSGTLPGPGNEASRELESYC

human GLP-1R = biological target: T2, human GLP-1R (Homo sapiens, UniProt P43220); experiment: Agonist activity against human GLP-1R, CRE-luciferase reporter assay in hGLP-1R/CRE-luc/CHO-K1 cells; type: cell-based; details: hGLP-1R/CRE-luc/CHO-K1 cells, 4 hours incubation; 10 nM GLP-1 = 100%; read-out: Agonist activity (EC50) hGLP-1R
T2 construct: expressed in transfected cells; host or cells: CHO-K1, plasmids hGLP-1/pIRESneo3 and Cre-luc(Zeo)
T2 sequence (P43220 24-463): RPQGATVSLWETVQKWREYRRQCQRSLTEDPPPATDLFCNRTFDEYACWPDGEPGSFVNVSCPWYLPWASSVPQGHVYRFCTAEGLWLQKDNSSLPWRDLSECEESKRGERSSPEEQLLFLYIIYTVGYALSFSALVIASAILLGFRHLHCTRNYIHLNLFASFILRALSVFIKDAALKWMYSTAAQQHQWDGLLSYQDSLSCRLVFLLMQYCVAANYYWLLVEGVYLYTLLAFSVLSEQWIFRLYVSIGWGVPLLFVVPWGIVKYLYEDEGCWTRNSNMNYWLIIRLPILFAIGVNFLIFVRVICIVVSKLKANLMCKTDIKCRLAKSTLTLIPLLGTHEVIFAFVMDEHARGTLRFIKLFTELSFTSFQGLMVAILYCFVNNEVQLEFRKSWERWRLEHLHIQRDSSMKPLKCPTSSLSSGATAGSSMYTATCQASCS

human glucagon R = biological target: T3, human glucagon R (Homo sapiens, UniProt P47871); experiment: Agonist activity against human glucagon R, CRE-luciferase reporter assay in hGlucagonR/CRE-LUC/CHO-K1 cells; type: cell-based; details: hGlucagonR/CRE-LUC/CHO-K1 cells, 4 hours incubation; 10 nM glucagon = 100%; read-out: Agonist activity (EC50) hGCGR
T3 construct: expressed in transfected cells; host or cells: CHO-K1 (CRE-LUC/CHO-K1), plasmid hGlucagonR/pMSRα-neo
T3 sequence (P47871 26-477): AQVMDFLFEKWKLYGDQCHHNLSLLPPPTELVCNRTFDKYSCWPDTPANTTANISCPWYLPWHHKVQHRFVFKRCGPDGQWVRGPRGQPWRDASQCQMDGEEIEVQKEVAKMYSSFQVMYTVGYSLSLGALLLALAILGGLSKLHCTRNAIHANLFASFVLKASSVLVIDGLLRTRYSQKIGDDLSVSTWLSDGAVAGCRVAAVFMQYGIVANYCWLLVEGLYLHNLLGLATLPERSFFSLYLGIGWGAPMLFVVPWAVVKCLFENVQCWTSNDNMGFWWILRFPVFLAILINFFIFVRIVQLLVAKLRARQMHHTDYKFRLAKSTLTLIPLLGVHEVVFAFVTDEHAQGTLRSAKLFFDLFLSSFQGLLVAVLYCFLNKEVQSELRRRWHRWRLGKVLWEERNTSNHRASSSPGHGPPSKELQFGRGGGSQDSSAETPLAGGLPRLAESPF

[1] = Solubility test in Britton-Robinson buffer, observed visually; type: physicochemical
Method: The test compound of approximately 2 mg was measured precisely. Solvents (10 μL, 20 μL or 40 μL) with different pH (Britton-Robinson buffer (pH 3, 5, 7, 9)) were added to each test compound at 25° C., and the solubility was observed visually.

Compound CC(C)C[C@H](NC(=O)[C@H](CC(C)C)NC(=O)[C@H](Cc1c[nH]c2ccccc12)NC(=O)[C@H](CCCCN)NC(=O)[C@@H](NC(=O)[C@H](Cc1ccccc1)NC(=O)[C@H](CCC(=O)O)NC(=O)[C@H](CCC(N)=O)NC(=O)[C@H](CCC(N)=O)NC(=O)[C@H](C)NC(=O)[C@H](CCC(N)=O)NC(=O)[C@H](CCCCN)NC(=O)[C@H](CC(=O)O)NC(=O)[C@H](CC(C)C)NC(=O)[C@H](Cc1ccc(O)cc1)NC(=O)[C@H](CCCCN)NC(=O)C(C)(C)NC(=O)[C@H](Cc1ccc(O)cc1)NC(=O)[C@H](CC(=O)O)NC(=O)[C@H](CO)NC(=O)[C@@H](NC(=O)[C@](C)(Cc1ccccc1)NC(=O)[C@@H](NC(=O)CNC(=O)[C@H](CCC(=O)O)NC(=O)C(C)(C)NC(=O)[C@@H](N)Cc1ccc(O)cc1)[C@@H](C)O)[C@@H](C)O)C(C)C)C(=O)N[C@@H](CCCCN)C(=O)NCC(=O)NCC(=O)N1CCC[C@H]1C(=O)N[C@@H](CO)C(=O)N[C@@H](CO)C(=O)NCC(=O)N[C@@H](C)C(=O)N1CCC[C@H]1C(=O)N1CCC[C@H]1C(=O)N1CCC[C@H]1C(=O)N[C@@H](CO)C(N)=O [Example 26] (H-Y[Aib]EGT[αMeF]TSDY[Aib]KYLDKQAQQEFVKWLLKGGPSSGAPPPS-NH2) has an EC50 (human GIPR) of 0.013 nM, an EC50 (human GLP-1R) of 0.015 nM and an EC50 (human glucagon R) greater than 1000 nM. The solubility ([1]; pH 3) was greater than 200 mg/mL, the solubility ([1]; pH 5) was greater than 200 mg/mL and the solubility ([1]; pH 7) was greater than 200 mg/mL. The solubility ([1]; pH 9) was greater than 200 mg/mL.
